Results on five molecules are retold here after patent US20240115577A1, “SMALL MOLECULE REGULATORS OF ALVEOLAR TYPE 2 CELL PROLIFERATION FOR THE TREATMENT OF PULMONARY DISEASES” (THE SCRIPPS RESEARCH INSTITUTE, priority 2021, published 2024).

One series concerns Primary human AEC2s. The series is described as follows: AEC2 proliferation assay (Ki67 high content imaging). Type of series: cell-based. The following applies: for EC50: Homo sapiens. Here is the method:
To identify small molecules capable of proliferating AEC2s, as disclosed herein, we first established a culture system with primary human small airway epithelial cells (SAECs) from a commercial source.
AEC2 proliferation assay. Primary human AEC2s were plated at a density of 1,500 cells per well in black 384-well plates (Greiner) coated with 10 ug/mL. Laminin (Life Technologies) in 50 μL of Small Airway Epithelial Cell Growth Medium (Lonza) without EGF, retinoic acid and with 5% BPE. 100 nL of compound dissolved in DMSO was then delivered using a Biomek FX instrument (Beckman Coulter) fitted with a pintool head (V&P Scientific).

Series [1] is described as follows: IT pharmacokinetics of dutogliptin (1) and dutogliptin boronate (15). Type of series: in vivo, mouse. The following applies: mouse, in vivo. Here is the method:
Like other […]. Dutogliptin (1) dosed IT in mice with PBS solution quickly cleared in lung (<24h. Table 8A). […] The parent drug dutogliptin was detected in plasma and lung. […] The drug was retained in the lung for over 48 h. The data clearly illustrated the unexpected lung retention ability of boronate prodrug 15.

In a further series the test system is HbA1c. The conditions noted are these: once-a-day oral doses of 200 mg and 400 mg; cited from earlier work.
The test system of series [2] is acute lung injury induced by LPS. Kind of series: LPS-induced acute lung injury (ALI) model. The following applies: for minimal efficacious dose in LPS lung injury model / Efficacy in LPS acute lung injury model, result in words: oral; for Efficacy in LPS acute lung injury model, result in words: histological scoring, BALF protein. Type of series: in vivo, mouse. How it is done:
Experimental methods of Acute Lung Injury (ALI) model
LPS from E. coli […] (Sigma) was used to induce acute lung injury in mice. Body weight matched (19 gram˜22 gram) female C57BL/6J mice at 9-11 weeks of age were selected to use in ALI model.
Vehicle control or DPP4 inhibitors were dosed at 10 ml/kg through oral gavage once or twice a day selected based on PK profile. […] Vehicle control or DPP4 inhibitors were dosed at 2 ml/kg through a 22 g flexible catheter every other day.
DPP4 inhibitors or vehicle control were given to mice starting from one day before LPS injection (day −1).
All animals were sacrificed at day 3.5 after LPS injection. Bronchoalveolar lavage fluid (BALF) was retrieved using standard method. 1 ml 4% formalin was used to inflate the lung, which was subsequently fixed in 4% formalin for 24 hours and preserved in 70% EtOH until histological process.
For readouts, total protein content in BALF was quantified using BCA assay: pulmonary inflammation and damage were assessed using H&E staining.

For series [3], the system named is bleomycin-induced lung fibrosis. Kind of series: Bleomycin-induced lung fibrosis model. Type of series: in vivo, mouse. The following applies: for Dose required in mouse bleomycin / Dose required in mouse bleomycin, multiple of HED: Table 6; for Efficacy in bleomycin-induced lung fibrosis, result in words: oral, high doses. Here is the method:
Experimental Methods of Bleomycin Model Bleomycin (Hospira) was used to induce lung fibrosis in mice. Body weight matched (24 gram˜28 gram) male C57BL/6J mice at 10-12 weeks of age were selected to use in bleomycin model. For orally delivered DPP4 inhibitors. compounds were dissolved in PBS resulting in clear solution. […] For intratracheally delivered DPP4 inhibitors, compounds were dissolved in PBS resulting in clear solution. […] 0.5 U/kg Bleomycin or PBS in sham group was intratracheally injection into mice lung at day 0. […] All animals were sacrificed at day 20 after bleomycin injection. Bronchoalveolar lavage fluid (BALF) was retrieved using standard method. 1 ml 4% formalin was used to inflate the lung, which was subsequently fixed in 4% formalin for 24 hours and preserved in 70% EtOH until histological process. For readouts, body weight was measured every day; total protein content in BALF was quantified using BCA assay; pulmonary fibrosis was assessed using Masson's trichrome staining.

Series [4] is described as follows: Pharmacokinetic profiling of four gliptins (oral, IT or OP). The following applies: for fraction of oral dose required by pulmonary (IT or OP) delivery for similar lung exposure: oral 100 mg/kg versus IT/OP 20 mg/kg. It counts as in vivo, mouse. Here is the method: B. Pharmacokinetic profiling. […] Thus, four of the five […] currently approved by the U.S. FDA were each administered to mice orally (100 mg/kg) or through intratracheal (IT) or oropharyngeal (OP) routes (20 mg/kg).

For a further series, the system named is oral glucose tolerance. The following applies: rodent models of diabetes; cited from earlier work.
For the next series, the system named is phospholipidosis. Kind of series: Phospholipidosis assay in vitro. The following applies: FIG. 7A; listed as Linagliptin.
The conditions of series [5]: in vivo; cited from earlier work.
[6] abbreviates: Table 4, promotion of AEC2 proliferation, read-out: AEC2 EC50.
[7] abbreviates: Table 5, read-out: AEC2 proliferation.
[8] abbreviates: 4.4 mg/kg, Lung concentration of dutogliptin, Mean.
Setting [9] is: 4.4 mg/kg, Lung concentration of dutogliptin, individual animals.

Entries after “also recorded” stand apart in the source; their conditions may differ. Read-outs that look alike come from different tables or passages of the source. Bounds are passed on as bounds.

With `O=C(CN[C@@H]1CCNC1)N1CCC[C@H]1B(O)O` [Cpd 1, ((R)-1-(((R)-pyrrolidin-3-yl)glycyl)pyrrolidin-2-yl)boronic acid], the EC50 with Primary human AEC2s (setting [6]) and with Primary human AEC2s (setting [7]) was 280 nM in each case. Moreover, in [1], the “time to clearance from lung” value is listed as below 24 h. Besides, the concentration at 3 h turned out to be 309 ng/mL in [1] (4.4 mg/kg, Bronchoalveolar lavage fluids concentration of dutogliptin, Mean); 400 ng/mL in series [1] (4.4 mg/kg, Bronchoalveolar lavage fluids concentration of dutogliptin, individual animals); 6550 ng/g in series [1] (setting [8]); 6800 ng/g in series [1] (setting [9]). Moreover, the concentration at 7 h in [1] (setting [8]) turned out to be 4560 ng/g; in series [1] (setting [9]) it was 3800 ng/g. The molecule also yielded a concentration at 24 h in [1] (setting [9]) of 3720 ng/g. Besides, in the series with HbA1c, the HbA1c versus placebo result is reported as “statistically reduced”.
Take `N#C[C@@H]1C[C@@H]2C[C@@H]2N1C(=O)[C@@H](N)C12CC3C[C@@H](C1)C[C@@](O)(C3)C2` [Cpd 4, (1S,3S,5S)-2-((2S)-2-amino-2-((1S,3R,5S)-3-hydroxyadamantan-1-yl)acetyl)-2-azabicyclo[3.1.0]hexane-3-carbonitrile]: the “AEC2 proliferation, result in words” value in the series on Primary human AEC2s was “promote AEC2 proliferation to the same magnitude as NVP-728”. For the same molecule, the EC50 in the series on Primary human AEC2s (setting [6]) was 650 nM. Further, in the series on Primary human AEC2s (setting [7]), the EC50 was 650 nM. Further, the “Dose required in mouse ALI” value in series [2] (Table 6) was 50 mg/kg BID (10-. Besides, in series [2], the “minimal efficacious dose in LPS lung injury model” value was determined as 50 mg/kg. Also, in [2] (high doses, listed as Saxagliptin), the “Efficacy in LPS acute lung injury model, result in words” value (from here on “Efficacy in LPS acute lung injury model”) is recorded as “efficacious; also recorded: promote repair; also recorded: dramatic improvements”. Besides, in [3], the “Dose required in mouse bleomycin” value was determined as 50 mg/kg BID; the “Dose required in mouse bleomycin, multiple of HED” value is “(10-20x HED)”; the “Efficacy in bleomycin-induced lung fibrosis, result in words” value was “efficacious”. In series [4], the “fraction of oral dose required by pulmonary (IT or OP) delivery for similar lung exposure” value (from here on “fraction of oral dose required”) was “one-fifth”. For the same molecule, the “dose with efficacy in OGTT model” value with oral glucose tolerance was 0.5 to 5 mg/kg.
With `CC#CCn1c(N2CCC[C@@H](N)C2)nc2c1c(=O)n(Cc1nc(C)c3ccccc3n1)c(=O)n2C` [Cpd 5, (R)-8-(3-aminopiperidin-1-yl)-7-(but-2-yn-1-yl)-3-methyl-1-((4-methylquinazolin-2-yl)methyl)-3,7-dihydro-1H-purine-2,6-dione], in series [2] (FIG. 7B), the “doses with antagonistic activity, repeat dosing” value is reported as at least 2 mg/kg and the “efficacious dose, repeat dosing” value was 1 mg/kg. In series [2] (Table 6), the “Dose required in mouse ALI” value is listed as 1 mg/kg QD; the “Dose required in mouse ALI, multiple of HED” value is on record as “model (2x HED)”; the “dose toxic in mouse ALI model” value was 2 mg/kg. In addition, the “Efficacy in LPS acute lung injury model” value in series [2] (high doses) is “efficacious”. In series [3], the “Dose required in mouse bleomycin” value is above 10 mg/kg qD; the “Dose required in mouse bleomycin, multiple of HED” value is given as “(>20x HED)”; the “Efficacy in bleomycin-induced lung fibrosis, result in words” value was “efficacious”. Moreover, the “fraction of oral dose required” value in [4] is reported as “one-fifth”. In [4] (versus other gliptins), the “lung exposure over the evaluated time frame” value is on record as “considerably higher lung exposure”. In addition, the phospholipidosis induction entry with phospholipidosis was “significant phospholipidosis at low concentrations; also recorded: induces phospholipidosis”.
For `Cc1cc(N2CCN([C@@H]3CN[C@H](C(=O)N4CCSC4)C3)CC2)n(-c2ccccc2)n1` [Cpd 8, ((2S,4S)-4-(4-(3-methyl-1-phenyl-1H-pyrazol-5-yl)piperazin-1-yl)pyrrolidin-2-yl)(thiazolidin-3-yl)methanone], the “Adverse Events” value in [5] is 160 mg/day cardiac safety.
`N[C@@H](CC(=O)N1CCn2c(nnc2C(F)(F)F)C1)Cc1cc(F)c(F)cc1F` [Sitagliptin]: in the series with Primary human AEC2s, the “AEC2 proliferation, result in words” value is recorded as “promote AEC2 proliferation to the same magnitude as NVP-728”. Besides, in the series with Primary human AEC2s (setting [7]), the EC50 stood at 560 nM. Besides, in series [2] (LPS model), the “proliferative AEC2s (KI-67 SFPTC double positive cells)” value is recorded as “substantial increase” and the “total number of cells (all nuclei) or Ki-67 positive cells in the lung” value was “does not significantly increase”. In addition, in series [2] (Table 6), the “Dose required in mouse ALI” value turned out to be 100 mg/kg BID and the “Dose required in mouse ALI, multiple of HED” value is reported as “(10-20x HED)”. Moreover, the “cytokine or BALF levels at early timepoints” value in [2] (high doses, time course) is reported as “do not affect”. Also, the “minimal efficacious dose in LPS lung injury model” value in series [2] amounted to 100 mg/kg. In addition, the “Efficacy in LPS acute lung injury model” value in series [2] (high doses) was “efficacious; also recorded: promote repair; also recorded: dramatic improvements”. The “protection in bleomycin model, co-treatment with Nintedanib (Ofev)” value in series [3] (Bliss independence calculations) was “synergistic protection”. In series [3], the “Dose required in mouse bleomycin” value was 100 mg/kg mg/kg BID and the “Efficacy in bleomycin-induced lung fibrosis, result in words” value was “efficacious; also recorded: ameliorative efficacy; also recorded: robust protection”. Moreover, in series [4], the “fraction of oral dose required” value is “one-fifth”. Also, the “dose with efficacy in OGTT model” value in the series on oral glucose tolerance is 3 to 30 mg/kg.
